For one assay, the target named is hTAS2R43 (Homo sapiens, UniProt P59537, H212R/W35S). An excerpt: (§1) These cells stably express a chimeric G protein constructed from human Gα16 and rat gustducin. Finally, we seeded the transfected cells at a density of 3×10^3 cells per well into 96-well black-wall, clear-bottom microtiter plates (Greiner).
(§2) Co-transfection of TAS2Rs with gustducin and phospholipase-Cβ2 into HEK-293 cells. Alternatively, we transfected simultaneously plasmid DNAs encoding one of the TAS2Rs, phospholipase-Cβ2 and α-gustducin into HEK-293 cells using the lipofectamine method. […] Thereafter, the transfected cells were seeded at a density of 3×10^3 cells per well into 96-well black-wall, clear-bottom microtiter plates (Greiner).
(§3) Thereafter, cells were gently washed in HBS by an automated plate washer (Denley Cellwash, Labsystenms) and transferred to the FLIPR (Molecular Devices). The FLIPR integrates an argon laser excitation source, a 96-well pipettor, and a detection system utilizing a Charged Coupled Device imaging camera. […] Fluorescence data were collected 1 min before and 10 min after stimulation. Data were collected every 6 s before and every 1 s after agonist stimulation. 50 μl of 3× concentrated agonists were delivered within 2 by the integrated 96-well pipettor to the wells containing 100 μl HBS. Agonist responses were quantified using the amplitudes of the fluorescence peaks. We averaged the responses of five wells containing cells expressing the same receptor and that received the same stimulus. Calcium traces were determined in triplicate of mock-transfected cells stimulated with the same concentration of tastant.

In a further assay the target is hTAS2R44 (Homo sapiens, UniProt P59538, L162M).
Source text: as §1, §2, §3

For another assay, the target named is T1, hTAS2R38 (Homo sapiens, UniProt P59533).
T1 construct: gene-specific primers that span the complete coding region ... contains the first 45 amino acids of the rat somatostatin type 3 receptor
T1 sequence (P59533 1-333 A49P/I296V): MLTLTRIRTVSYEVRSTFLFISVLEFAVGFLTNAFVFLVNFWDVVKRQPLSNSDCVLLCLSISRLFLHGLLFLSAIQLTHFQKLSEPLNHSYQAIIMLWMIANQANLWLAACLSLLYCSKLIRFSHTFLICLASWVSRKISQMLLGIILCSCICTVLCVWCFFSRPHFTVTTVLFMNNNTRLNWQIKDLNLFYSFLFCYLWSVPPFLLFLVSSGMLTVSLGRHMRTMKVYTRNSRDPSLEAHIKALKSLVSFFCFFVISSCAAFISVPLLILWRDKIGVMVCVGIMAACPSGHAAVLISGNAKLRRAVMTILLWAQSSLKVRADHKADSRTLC
Nature of the assay: FLIPR assay, heterologous expression of hTAS2R38. The format is cell-based.

In another assay the target is T2, hT2R4 receptor (Homo sapiens, UniProt Q9NYW5).
T2 sequence (Q9NYW5 1-299): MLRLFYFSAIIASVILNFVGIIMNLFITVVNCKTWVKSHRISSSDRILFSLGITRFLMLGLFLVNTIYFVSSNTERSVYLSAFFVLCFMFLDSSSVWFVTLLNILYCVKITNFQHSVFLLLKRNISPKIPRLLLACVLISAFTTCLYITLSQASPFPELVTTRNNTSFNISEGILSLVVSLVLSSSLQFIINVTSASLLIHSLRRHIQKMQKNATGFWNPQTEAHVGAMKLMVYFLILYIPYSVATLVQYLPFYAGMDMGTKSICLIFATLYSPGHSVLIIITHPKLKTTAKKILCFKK
The settings on record: concentrations needed two orders of magnitude above human taste thresholds; cited from earlier work.

The target of the next assay is T3, hTAS2R10 (Homo sapiens, UniProt Q9NYW0, T156M).
T3 construct: gene-specific primers that span the complete coding region of the individual hTAS2R genes; first 45 amino acids of rat somatostatin type 3 receptor (cell surface-targeting signal) (N); expressed in transfected cells; host or cells: HEK-293T-Gα16gustducin44 cells (alternatively HEK-293 co-transfected with phospholipase-Cβ2 and α-gustducin)
T3 sequence (Q9NYW0 1-307 T156M): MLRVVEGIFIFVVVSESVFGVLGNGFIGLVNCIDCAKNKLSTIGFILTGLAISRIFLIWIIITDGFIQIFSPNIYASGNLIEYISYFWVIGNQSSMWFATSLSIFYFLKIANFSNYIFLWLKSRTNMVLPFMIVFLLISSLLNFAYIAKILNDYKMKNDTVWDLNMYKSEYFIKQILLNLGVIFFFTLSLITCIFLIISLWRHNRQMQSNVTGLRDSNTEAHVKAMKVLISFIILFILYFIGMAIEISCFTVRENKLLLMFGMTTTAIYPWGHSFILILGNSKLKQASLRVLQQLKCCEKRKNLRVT
Nature of the assay: FLIPR assay, heterologous expression of hTAS2R10. The format is cell-based. The settings on record: hTAS2R10. The text has this:
(§4) Transient transfection of TAS2Rs into HEK-293T-Gα16gustducin44 cells.

The next assay has as its target T4, hTAS2R45 (Homo sapiens, UniProt P59539).
T4 construct: gene-specific primers that span the complete coding region of the individual hTAS2R genes; first 45 amino acids of rat somatostatin type 3 receptor (cell surface-targeting signal) (N); expressed in transfected cells; host or cells: HEK-293T-Gα16gustducin44 cells (alternatively HEK-293 co-transfected with phospholipase-Cβ2 and α-gustducin)
T4 sequence (P59539 1-299): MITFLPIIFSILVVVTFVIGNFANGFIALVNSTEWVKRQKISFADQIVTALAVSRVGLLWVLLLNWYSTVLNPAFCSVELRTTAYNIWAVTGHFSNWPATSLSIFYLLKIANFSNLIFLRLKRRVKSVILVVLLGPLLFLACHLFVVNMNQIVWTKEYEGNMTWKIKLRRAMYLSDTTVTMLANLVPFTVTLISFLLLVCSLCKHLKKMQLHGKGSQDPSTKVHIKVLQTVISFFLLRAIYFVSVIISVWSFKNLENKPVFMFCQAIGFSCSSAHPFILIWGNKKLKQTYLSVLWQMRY
Description: FLIPR assay, heterologous expression of hTAS2R45. The format is cell-based.
Source text: as §4

For a further assay, the target named is T5, hTAS2R46 (Homo sapiens, UniProt P59540).
T5 construct: gene-specific primers that span the complete coding region of the individual hTAS2R genes; first 45 amino acids of rat somatostatin type 3 receptor (cell surface-targeting signal) (N); expressed in transfected cells; host or cells: HEK-293T-Gα16gustducin44 cells (alternatively HEK-293 co-transfected with phospholipase-Cβ2 and α-gustducin)
T5 sequence (P59540 with tags, fused parts or gaps limits assumed): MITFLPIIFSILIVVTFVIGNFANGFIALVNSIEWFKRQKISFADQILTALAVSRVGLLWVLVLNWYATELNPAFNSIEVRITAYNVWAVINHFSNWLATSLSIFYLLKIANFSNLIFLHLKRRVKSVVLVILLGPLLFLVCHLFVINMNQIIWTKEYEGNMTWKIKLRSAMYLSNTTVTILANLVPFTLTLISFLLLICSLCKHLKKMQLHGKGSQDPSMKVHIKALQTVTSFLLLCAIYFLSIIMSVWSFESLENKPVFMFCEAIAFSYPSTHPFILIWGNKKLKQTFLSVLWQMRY
Nature of the assay: FLIPR assay, heterologous expression of hTAS2R46. The format is cell-based.
Source text: as §4

In another assay the target is T6, hTAS2R48 (Homo sapiens, UniProt P59542).
T6 construct: gene-specific primers that span the complete coding region of the individual hTAS2R genes; first 45 amino acids of rat somatostatin type 3 receptor (cell surface-targeting signal) (N); expressed in transfected cells; host or cells: HEK-293T-Gα16gustducin44 cells (alternatively HEK-293 co-transfected with phospholipase-Cβ2 and α-gustducin)
T6 sequence (P59542 1-299): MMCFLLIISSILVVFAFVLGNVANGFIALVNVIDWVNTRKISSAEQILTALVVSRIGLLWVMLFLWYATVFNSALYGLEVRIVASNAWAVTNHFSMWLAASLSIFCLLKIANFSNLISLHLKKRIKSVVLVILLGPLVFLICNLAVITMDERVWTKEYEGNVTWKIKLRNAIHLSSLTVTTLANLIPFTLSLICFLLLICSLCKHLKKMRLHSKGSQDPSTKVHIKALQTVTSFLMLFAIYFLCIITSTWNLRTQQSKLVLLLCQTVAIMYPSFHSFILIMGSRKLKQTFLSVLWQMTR
Description: FLIPR assay, heterologous expression of hTAS2R48. The format is cell-based.
Source text: as §4

The text below walks through data of patent US7955808B2, “Bitter taste receptors” (Deutsches Institut für Ernährungsorschung, Stiftung des …, priority 2002, dated 2011).

For orientation: EC50 means the concentration that produces a half-maximal response.

Sequence of hTAS2R44 (P59538 whole entry L162M): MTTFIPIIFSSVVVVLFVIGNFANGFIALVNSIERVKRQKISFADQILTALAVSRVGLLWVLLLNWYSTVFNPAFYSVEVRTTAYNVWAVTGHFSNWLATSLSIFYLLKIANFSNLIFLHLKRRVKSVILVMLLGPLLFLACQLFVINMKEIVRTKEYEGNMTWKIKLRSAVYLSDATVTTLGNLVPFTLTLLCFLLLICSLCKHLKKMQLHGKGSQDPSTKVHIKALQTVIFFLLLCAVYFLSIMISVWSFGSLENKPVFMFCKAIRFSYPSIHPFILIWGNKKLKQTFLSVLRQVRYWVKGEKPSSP
Sequence of hTAS2R43 (P59537 whole entry W35S/H212R): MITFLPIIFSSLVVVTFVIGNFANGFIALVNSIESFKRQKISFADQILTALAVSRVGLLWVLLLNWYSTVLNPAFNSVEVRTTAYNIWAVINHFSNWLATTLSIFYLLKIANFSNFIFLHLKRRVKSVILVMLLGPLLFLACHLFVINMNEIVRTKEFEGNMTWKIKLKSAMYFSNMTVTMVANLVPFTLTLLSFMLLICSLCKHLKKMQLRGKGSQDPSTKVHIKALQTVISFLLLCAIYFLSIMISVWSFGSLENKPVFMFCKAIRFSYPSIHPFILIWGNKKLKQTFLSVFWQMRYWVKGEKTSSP
Description for hTAS2R38: Co-transfection of TAS2Rs with gustducin and phospholipase-Cβ2 into HEK-293 cells. Alternatively, we transfected simultaneously plasmid DNAs encoding one of the TAS2Rs, phospholipase-Cβ2 and α-gustducin into HEK-293 cells using the lipofectamine method. Additional cotransfection of G-protein β and γ-subunits may improve the bitter tastant-induced responses. Thereafter, the transfected cells were seeded at a density of 3×10^3 cells per well into 96-well black-wall, clear-bottom microtiter plates (Greiner).

As to `CC1=CC(=O)NS(=O)(=O)O1` [Acesulfame K], the “Approx. Threshold” value on hTAS2R43 is reported as “No response up to 10 mM”; on hTAS2R44, 0.5 mM. The “receptor activation (in words)” value at hTAS2R44 is listed as “activated”.

For `CCCc1cc(=O)[nH]c(=S)[nH]1` [6-Propyl-2-thiouracil], on hTAS2R38, the “Approx. Threshold” value amounted to 0.3 µM and the “receptor activation (in words)” value is “activated”. In addition, the concentration giving a half-maximal response (EC50) at hTAS2R38 (read-out: EC50) was 2 µM. On hT2R4 receptor, the “in vitro response of the receptor” value is “provided a response”.

As for `CC1=C[C@@H]2[C@@H]3C4C(=C(C)[C@@H]3[C@@]13[C@@H]2[C@@](C)(O)CC[C@H]1[C@H](C)C(=O)O[C@@H]13)[C@H]1OC(=O)[C@@H](C)[C@@H]1CC[C@]4(C)O` (stereo partly drawn) [Absinthine], the Approx. Threshold came out at 0.01 mM at hTAS2R10, 0.003 mM at hTAS2R45, 0.001 mM at hTAS2R46 and 0.03 mM on hTAS2R48. The “receptor activation (in words)” value at hTAS2R10, on hTAS2R45, at hTAS2R46 and at hTAS2R48 was “activated” in each case.
